Experimental data: patent publication US6878734B2, “Gastrin and cholecystokinin receptor ligands(II)” (James Black Foundation Limited, priority 2000, dated 2005)

Columns and labels:
CCK1 receptors = target: T1, CCK1 receptors (Cavia porcellus, UniProt Q63931); assay: CCK1 binding assay, guinea-pig pancreas membranes, [125I]-CCK8(S); details: [125I]-CCK8(S) 200 pM, 150 minutes at 21±3° C; for Ki: read-out: Guinea-Pig Pancreas CCK1 pKi (converted)
T1 construct: The pancreatata were homogenised in 40 ml ice-cold HEPES buffer using a polytron; from tissue; host or cells: pancreas membranes of male Dunkin Hartley guinea-pigs
T1 sequence (Q63931 1-430): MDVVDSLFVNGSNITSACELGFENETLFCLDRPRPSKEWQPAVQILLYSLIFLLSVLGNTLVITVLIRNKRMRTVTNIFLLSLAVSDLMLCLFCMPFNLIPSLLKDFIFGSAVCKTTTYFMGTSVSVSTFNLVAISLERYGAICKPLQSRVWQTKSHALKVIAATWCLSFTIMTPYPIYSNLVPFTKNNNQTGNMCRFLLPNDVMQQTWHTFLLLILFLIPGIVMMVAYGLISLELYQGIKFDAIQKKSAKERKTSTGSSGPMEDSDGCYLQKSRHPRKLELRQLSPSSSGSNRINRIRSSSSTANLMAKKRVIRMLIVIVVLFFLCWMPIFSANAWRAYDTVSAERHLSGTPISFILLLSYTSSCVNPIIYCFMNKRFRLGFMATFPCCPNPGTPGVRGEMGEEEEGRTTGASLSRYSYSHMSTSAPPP
Protocol: The compounds of certain examples were also tested in a CCK1 binding assay as follows:
The pancreatata were removed from male guinea-pigs (200-300 g; Dunkin Hartley) and placed in ice-cold HEPES buffer (pH 7.2@21±3° C.). The pancreatata were homogenised in 40 ml ice-cold HEPES buffer using a polytron (Brinkmann, PT10, setting 10) 4×1 second. The homogenate was centrifuged at 39,800 g for 15 min at 4° C. The supernatant was discarded and the pellet re-suspended using a Teflon-in-glass homogeniser in 20 volumes of fresh buffer and re-centrifuged as above. The final pellet was re-suspended using a Teflon-in-glass homogeniser to a tissue concentration of 1 mg.ml^−1 (original wet weight), and filtered through a 500 μm pore-size Nytex mesh.
The membranes (400 μl; containing 0.375 μM PD134,308) were incubated for 150 minutes at 21±3° C. in a final volume of 0.5 ml with HEPES buffer containing [^125I]-CCK8 (S) (50 μl; 200 pM) and competing compound. Total and non-specific binding of [^125I]-CCK8 (S) were defined using 50 μl of buffer and 50μ of 100 nM L-364,718 respectively. The assay was terminated by rapid filtration through pre-soaked Whatman GF/B filters using a Brandell Cell Harvetser. The filters were washed (3×3 ml) with ice-cold 50 mM Tris HCl (pH 7.4@4° C.) and bound radioactivity was determined by counting (1 min) in a gamma counter.

gastrin (CCK2) receptors = target: T2, gastrin (CCK2) receptors (Rattus norvegicus, UniProt P30553); assay: immature rat stomach assay, gastrin (CCK2) antagonist activity; details: isolated immature rat stomach, antagonism of pentagastrin-stimulated acid secretion, 60 min incubation; for Kb: read-out: Rat stomach pKB (converted)
T2 construct: The stomach was excised and flushed with ca. 1 ml of unbuffered physiological saline solution; from tissue; host or cells: isolated whole stomach of immature rats (33-50 g, ca. 21 days old)
T2 sequence (P30553 1-452): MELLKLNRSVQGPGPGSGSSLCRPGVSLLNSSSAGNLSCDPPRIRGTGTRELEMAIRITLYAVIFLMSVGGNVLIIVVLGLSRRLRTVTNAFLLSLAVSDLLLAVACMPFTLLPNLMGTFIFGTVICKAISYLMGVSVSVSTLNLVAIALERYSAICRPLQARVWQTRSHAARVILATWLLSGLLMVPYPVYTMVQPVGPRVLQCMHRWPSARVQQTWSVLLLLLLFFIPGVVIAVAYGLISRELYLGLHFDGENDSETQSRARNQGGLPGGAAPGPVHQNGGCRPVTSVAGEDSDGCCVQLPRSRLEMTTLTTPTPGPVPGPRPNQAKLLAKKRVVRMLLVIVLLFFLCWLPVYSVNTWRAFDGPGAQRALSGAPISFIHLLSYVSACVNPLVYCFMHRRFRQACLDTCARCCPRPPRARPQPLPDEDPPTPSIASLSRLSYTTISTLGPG
Protocol: The compounds of the examples were tested for gastrin (CCK2) antagonist activity in an immature rat stomach assay. The procedure was as follows:
The oesophagus of immature rats (33-50 g, ca. 21 days old) was ligated at the level of the cardiac sphincter and the duodenal sphincter was cannulated. The stomach was excised and flushed with ca. 1 ml of unbuffered physiological saline solution. The fundus was punctured and cannulated. A further 4-5 ml of unbuffered solution was flushed through the stomach to ensure the preparation was not leaking. The stomach was lowered into a jacketed organ bath containing 40 ml of buffered solution containing 3×10^−8 M 5-methylfurmethide, maintained at 37° and gassed vigorously with 95% O2/5% CO2. The stomach was continuously perfused at a rate of 1 ml min^−1 with unbuffered solution gassed with 100% O2 with perfusate passing over an internally referenced pH-electrode fixed 12 cm above the stomach.
After 120 min of stabilisation the drugs were added directly to the serosal solution in the organ bath and after a further 60 min cumulative pentagastrin dose-response curves were started. Changes in acid secretion were monitored and the curves analysed according to Black et al., Br. J. Pharmacol., 1985, 86, 581.

Molecule	Ki (CCK1 receptors)	Kb (gastrin (CCK2) receptors)	Guinea-Pig Pancreas CCK1 pKi (CCK1 receptors)	Rat stomach pKB (gastrin (CCK2) receptors)
3-{5-[5-(Adamantan-1-yloxymethyl)-2-cyclohexyl-3-hydroxy-1H-imidazol-4-yl]-[1,3,4]oxadiazol-2-yl}-benzoic acid [Example 17]	–	–	5.23	6.90
O=C(O)c1cccc(-c2nnc(-c3nc(C4CCCCC4)[nH]c3COC34CC5CC(CC(C5)C3)C4)s2)c1 [Example 8, 3-{5-[5-(Adamantan-1-yloxymethyl)-2-cyclohexyl-1H-imidazol-4-yl]-[1,3,4]thiadiazol-2-yl}-benzoic acid]	0.135 µM	0.00372 µM	–	–
2-{5-[5-(Adamantan-1-yloxymethyl)-2-cyclohexyl-1H-imidazol-2-yl]-[1,3,4]oxadiazol-2-yl}-isonicotinic acid [Example 14]	–	–	5.01	5.98
3-{5-[5-(Adamantan-1-yloxymethyl)-2-cyclohexyl-1H-imidazol-4-yl]-[1,3,4]triazol-3-yl}-benzoic acid [Example 10]	–	–	6.41	8.28
O=C(O)c1cncc(-c2nnc(-c3nc(C4CCCCC4)[nH]c3COC34CC5CC(CC(C5)C3)C4)o2)c1 [Example 13, 5-{5-[5-(Adamantan-1-yloxymethyl)-2-cyclohexyl-1H-imidazol-4-yl]-[1,3,4]oxadiazo-2-yl}-nicotinic acid]	3.24 µM	0.0229 µM	–	–
O=C(O)c1cccc(-c2nnc(-c3nc(C4CCCCC4)[nH]c3COC34CC5CC(CC(C5)C3)C4)o2)n1 [Example 12, 6-{5-[5-(Adamantan-1-yloxymethyl)-2-cyclohexyl-1H-imidazol-4-yl]-[1,3,4]oxadiazol-2-yl}-pyridine-2-carboxylic acid]	2.14 µM	–	–	–
O=C(O)c1cccc(-c2nnc(-c3nc(C4CCCCC4)[nH]c3COC34CC5CC(CC(C5)C3)C4)o2)c1 [Example 9, 3-{5-[5-(Adamantan-1-yloxymethyl)-2-cyclohexyl-1H-imidazol-4-yl]-[1,3,4]oxadiazol-2-yl}-benzoic acid]	0.55 µM	0.00245 µM	–	–
3-{2-[5-(2-Adamantan-1-yl-ethyl)-2-o-tolyl-1H-imidazol-4-yl]-[1,2,4]oxadiazol-3-yl}-benzoic acid [Example 5]	–	–	6.40	5.76
3-{2-[5-(Adamantan-1-yloxymethyl)-2-cyclohexyl-1H-imidazol-4-yl]-[1,2,4]oxadiazol-3-yl}-benzoic acid [Example 3]	–	–	6.37	8.66
O=C(O)c1cccc(-c2noc(-c3nc(C4CCCCC4)[nH]c3CCC34CC5CC(CC(C5)C3)C4)n2)c1 [Example 4, 3-{2-[5-(2-Adamantan-1-yl-ethyl)-2-cyclohexyl-1H-imidazol-4-yl]-[1,2,4]oxadiazol-3-3-yl}-benzoic acid]	0.339 µM	0.00692 µM	–	–
O=C(O)c1cccc(-c2csc(-c3nc(C4CCCCC4)[nH]c3COC34CC5CC(CC(C5)C3)C4)n2)c1 [Example 6, 3-{2-[5-(Adamantan-1-yloxymethyl)-2-cyclohexyl-1H-imidazol-4-yl]-thiazol-4-yl}-benzoic acid]	1.15 µM	0.00269 µM	–	–
O=C(O)c1cccc(-c2nc(-c3nc(C4CCCCC4)[nH]c3COC34CC5CC(CC(C5)C3)C4)no2)c1 [Example 18, 3-{3-[5-(Adamantan-1-yloxymethyl)-2-cyclohexyl-1H-imidazol-4-yl]-[1,2,4]oxadiazol-5-yl}-benzoic acid]	0.501 µM	0.0024 µM	–	–

The next lines start with results.

Ki (CCK1 receptors)	Kb (gastrin (CCK2) receptors)	Molecule	Guinea-Pig Pancreas CCK1 pKi (CCK1 receptors)	Rat stomach pKB (gastrin (CCK2) receptors)
0.468 µM	0.00191 µM	O=C(O)c1cccc(-c2nnc(-c3nc(C45CCC(CC4)CC5)[nH]c3COC34CC5CC(CC(C5)C3)C4)o2)c1 [Example 16, 3-{5-[5-(Adamantan-1-yloxymethyl)-2-bicyclo[2.2.2]oct-1-yl-1H-imidazol-4-yl]-[1,3,4]oxadiazol-2-yl}-benzoic acid]	–	–
0.741 µM	0.00794 µM	O=C(O)c1cccc(-c2coc(-c3nc(C4CCCCC4)[nH]c3COC34CC5CC(CC(C5)C3)C4)n2)c1 [Example 1, 3-{2-[5-(Adamantan-1-yloxymethyl)-2-cyclohexyl-1H-imidazol-4-yl}-oxazol-4-yl}-benzoic acid]	–	–
1.17 µM	0.0182 µM	Cc1ccccc1-c1nc(-c2nc(-c3cccc(C(=O)O)c3)co2)c(CCC23CC4CC(CC(C4)C2)C3)[nH]1 [Example 2, 3-{2-[5-(2-Adamantan-1-yl-ethyl)-2-o-tolyl-1H-imidazol-4-yl]oxazol-4-yl}-benzoic acid]	–	–
0.269 µM	0.0977 µM	O=C(O)c1cccc(-c2c[nH]c(-c3nc(C4CCCCC4)[nH]c3COC34CC5CC(CC(C5)C3)C4)n2)c1 [Example 7, 3-[5′-(Adamantan-1-yloxymethyl)-2′cyclohexyl-1H,1H′-[2,4′]biimidazolyl-4-yl]-benzoic acid]	–	–
–	0.191 µM	O=C(O)c1cccc(C2CN=C(c3nc(C4CCCCC4)[nH]c3COC34CC5CC(CC(C5)C3)C4)O2)c1 (centres unmarked) [Example 11, 3-{2-[5-(Adamantan-1-yloxymethyl)-2-cyclohexyl-1H-imidazol-4-yl]-4,5-dihydro-oxazol-5-yl}-benzoic acid]	–	–
